Holding throughout (test): NCI anticancer screen, dose series, 48 h
The subject of test [1] is 786-0 renal.
Test [2] has as its system A549 NSCLC.
The subject of test [3] is ACHN renal.
For test [4], the system named is HCC-2998 colon.
Test [5] deals with OVCAR-3 ovarian.
The test system of test [6] is SW-620 colon.
In test [7] the test system is TK-10 renal.
Test [8] relates to BT-549 breast.
The subject of test [9] is MDA-MB-435.
Test [10] has as its system SK-MEL-2 melanoma.

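Following 48 hours of exposure in 96-well plates, responses at five concentrations were used to interpolate endpoints linearly. GI50 is the concentration that inhibits growth by half. TGI: total growth inhibition.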 Where a SMILES comes first, the peptide text is derived from it. [ ]: non-standard residue; d: D form. The star is where a group is joined. Bn2Val = CC(C)[C@@H](C(=O)*)N(Cc1ccccc1)Cc1ccccc1; NH(4-Cl-benzyl) = Clc1ccc(CN*)cc1; NMeV = CN[C@H](C(=O)O)C(C)C; dNMeA = CN[C@H](C)C(=O)O

These results are taken from PubChem BioAssay (NCI).

As for `CN=C(/N=c1\ssc(=NC)n1C)N(C)C`, the TGI in test [1], in [2], in test [3], in test [4], in test [5] and in test [6] was > 100 µM each time. Moreover, in test [7], the TGI was > 100 µM.
In the case of `CC(C)[C@H](NC(=O)[C@H](C(C)C)N(Cc1ccccc1)Cc1ccccc1)C(=O)N(C)[C@H](C(=O)N1CCC[C@H]1C(=O)N(C)[C@H](C)C(=O)NCc1ccc(Cl)cc1)C(C)C` (Bn2Val-V[NMeV]P[dNMeA]-{NH(4-Cl-benzyl)}), the TGI in test [1] was 28.7 µM; in test [2], > 100 µM; in [3], 10.1 µM; in test [8], 13.5 µM; in [9], 79.8 µM; in test [5], 9.67 µM. Further, the TGI in test [10] was 3.62 µM; in [6] it was > 100 µM; in [7], > 100 µM.
In the case of `Cc1cc(C)c2c(c1)C(=O)/C(=C/c1ccccc1C(=O)O)C2`, the TGI in test [1], in test [2], in [3], in test [8], in test [4] and in test [5] was > 100 µM throughout. For the same compound, the TGI in test [10], in test [6] and in test [7] was > 100 µM in each case.
Take `COc1cc(C2c3cc4c(cc3C3OC[C@@H]2C3CO)OCO4)cc(OC)c1OC` (stereo not given in full): the TGI is > 100 µM in test [1]; > 100 µM in [2]; > 100 µM in [3]; 97.6 µM in test [8]; 51.1 µM in [9]; 97.9 µM in [5]. Moreover, the TGI in test [10], in test [6] and in test [7] was > 100 µM throughout. Besides, in [5], the GI50 is 23.9 µM.
As for `CC(C)(C)n1c(=O)[nH]c(=O)n1C(C)(C)C`, the TGI in test [1], in test [2], in test [3], in test [8], in test [4] and in test [5] was > 100 µM each time. Further, the TGI in test [10], in [6] and in test [7] was > 100 µM in each case.
In the case of `COc1cccc(N[C@@H]2c3cc4c(cc3C(c3cc(OC)c(O)c(OC)c3)[C@H]3C(=O)OCC32)OCO4)c1` (stereo not given in full), the TGI in [2] is 2.14 µM; in [4] it was 3.79 µM; in test [5], 68.6 µM; in [10], 11.2 µM; in test [6] it was > 43.2 µM.
As to `CCc1cc2c(c3c1CCCC3=O)CC1(Cc3ccc(C(=O)OC)cc3C1)C2` (stereo not given), the TGI in [1], in test [2], in test [3], in test [4], in [9] and in test [5] was > 100 µM in each case. Besides, the TGI in test [10], in test [6] and in [7] was > 100 µM in each case.
On to `CCN=C1C=CC(=C(c2ccc(N(CC)CC)cc2)c2ccc(N(CC)CC)cc2)c2ccccc21`, for which the GI50 in test [3] is 0.194 µM; in test [8], 0.107 µM; in [9], 0.0733 µM; in [10], 0.0768 µM; in [7], 0.0422 µM. The TGI worked out at 1.07 µM in test [3]; 0.602 µM in [8]; 0.428 µM in test [9]; 0.383 µM in [10]; 1.13 µM in test [7].
In the case of `c1ccc(CN2CCC(Nc3ccccc3)(c3nnnn3Cc3ccccc3)CC2)cc1`, the TGI was 60.6 µM in test [1]; > 100 µM in test [2]; > 100 µM in [3]; 10.5 µM in test [4]; > 100 µM in test [9]; 60.6 µM in test [6]. Further, in test [7], the TGI was > 100 µM.
Turning to `Cc1nnc2n1N=C(c1ccc(Cl)cc1Cl)/C(=C/c1ccc(-c3ccc([N+](=O)[O-])cc3Cl)o1)S2`, the GI50 is 31.7 µM in [2]; 18.5 µM in test [3]; 22.1 µM in test [8]; 13.5 µM in [9]; 14.4 µM in test [5]; 32.8 µM in [10]. The GI50 in test [6] is 13.3 µM; in [7] it was 18.4 µM. Moreover, the TGI is > 100 µM in test [2]; 34.6 µM in test [3]; 43.3 µM in [8]; 29 µM in test [9]; 34 µM in test [5]; > 100 µM in test [10]. The TGI was found to be 33 µM in test [6] and 34.8 µM in test [7].
Consider `O=C(O)c1ccccc1N=Cc1ccc(N(CCCl)CCCl)cc1`, for which the TGI in test [2], in test [4], in [5], in test [10] and in [6] was > 100 µM each time.
On to `NCc1cccc(O)c1O`, for which the TGI in [1], in [2], in test [3], in test [5], in [10] and in test [6] was > 100 µM throughout. Further, the TGI in [7] is > 100 µM.
Turning to `COc1cc(C2C(Cl)C(=O)N2c2c(C)n(C)n(-c3ccccc3)c2=O)ccc1O` (stereo not given), the TGI in [1] is 31.6 µM; in test [2], 61.9 µM; in test [3], 34.9 µM; in test [8] it was 45 µM; in [9], 31.8 µM; in test [5] it was > 100 µM. Also, the TGI in [10] turned out to be 50.4 µM; in test [6], 36.4 µM; in test [7], 63.5 µM.
As for `O=C(CCN1CCN2c3ccccc3CCC2C1)c1ccc(F)cc1` (stereo not given), the TGI in test [1] is 43.6 µM; in [2] it was > 100 µM; in [3], 43.3 µM; in test [8], 50 µM; in [9], 47.4 µM; in test [5] it was 71.4 µM. Also, the TGI in [10] was 53.3 µM; in test [6], > 100 µM; in [7], 66 µM.
For `COC(=O)C1C(=O)N(C)C(=O)N2CCCC12` (stereo not given), the TGI in [1], in test [2], in test [3], in test [4], in [9] and in test [5] was > 100 µM in each case. Further, the TGI in test [10], in [6] and in test [7] was > 100 µM throughout.
